Key:
SK-OV-3/CBP = assay: MTT viability assay in carboplatin-resistant SK-OV-3/CBP cells; assay type: cell-based, human; settings: 72 h; resistant subline vs parental line
Protocol: (§1) Cells were seeded (2 × 10^4 cells/well for HCT116, HCT116/OxR, 3 × 10^4 cells/well for HCT116 p53KO, 4 × 10^4 cells/well for MES-OV, SK-OV-3, and their respective CBP resistant counterparts) in 100 μL/well in 96-well plates and allowed to attach for 24 h at 37 °C and 5% CO2. Compounds were first dissolved in DMSO to a 10 mM stock solution and then further diluted in a growth medium (DMSO concentration <1%). After 24 h, cells were treated with 100 μL of different drugs dilutions in triplicates with the final concentrations of 0, 0.01, 0.05, 0.075, 0.1, 0.5, 0.75, 1, 2.5, 5, 7.5, and 10 μM depending on the compound and the cell line.

MES-OV/CBP = assay: MTT viability assay in carboplatin-resistant MES-OV/CBP cells; assay type: cell-based, human; settings: 72 h; resistant subline vs parental line
Protocol: as §1

HCT116 WT/OxR = assay: MTT viability assay in oxaliplatin-resistant HCT116 WT/OxR cells; assay type: cell-based, human; settings: 72 h; resistant subline vs parental line
Protocol: as §1

recombinant rat TrxR = target: T1, recombinant rat TrxR (Rattus norvegicus, UniProt O89049); assay: Inhibition of mammalian TrxR (microplate reader-based DTNB assay); assay type: biochemical; settings: cell-free assay
T1 construct: purchased Cayman Chemical
T1 sequence (O89049 1-499): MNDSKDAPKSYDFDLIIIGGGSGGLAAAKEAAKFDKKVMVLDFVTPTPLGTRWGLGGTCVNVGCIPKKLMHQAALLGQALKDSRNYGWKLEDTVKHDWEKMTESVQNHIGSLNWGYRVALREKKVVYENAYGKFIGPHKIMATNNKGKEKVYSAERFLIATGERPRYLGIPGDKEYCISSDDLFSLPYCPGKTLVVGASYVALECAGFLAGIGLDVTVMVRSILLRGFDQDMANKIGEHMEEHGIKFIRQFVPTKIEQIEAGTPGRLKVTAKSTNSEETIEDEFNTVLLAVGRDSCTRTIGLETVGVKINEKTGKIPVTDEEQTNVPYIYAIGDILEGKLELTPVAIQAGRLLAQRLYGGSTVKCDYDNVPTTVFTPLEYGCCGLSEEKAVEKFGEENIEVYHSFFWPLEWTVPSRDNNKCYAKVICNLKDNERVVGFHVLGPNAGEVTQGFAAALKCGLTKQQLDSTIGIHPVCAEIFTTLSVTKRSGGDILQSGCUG
Protocol: To determine the inhibition of mammalian TrxR, an established microplate reader-based assay was performed. For this purpose, commercially available recombinant rat TrxR (from Cayman Chemical) was used and diluted with distilled water to achieve a concentration of 0.12 U mL^–1. The compounds were freshly dissolved as stock solutions in DMSO. Aliquots (25 μL) of the enzyme solution and 25 μL of potassium phosphate buffer (pH 7.0) containing the compounds in graded concentrations (1% DMSO) were mixed. Positive controls were composed of 25 μL aliquots of the enzyme solution mixed with 25 μL 1% DMSO in buffer solution (no compounds). The final concentration of DMSO was 0.5% v/v in all samples. The blank solution was the highest used concentration of the compound in 0.5% DMSO in buffer solution (no enzyme). All resulting solutions were incubated with moderate shaking for 75 min at 37 °C in a 96-well plate. […] After proper mixing, the formation of 2-nitro-5-thiobenzoate (5-TNB) was monitored with a microplate reader at 405 nm 10 times in 35 s intervals for about 6 min. The increase in 5-TNB concentration over time followed a linear trend, and the enzymatic activities were calculated as the slopes (increase in absorbance per second) thereof. […] For the absorption measurements in the enzyme assay, a PerkinElmer 2030 Multilabel Reader VICTORTMX4 was used.

MES-OV cells [1] = assay: Mitochondrial membrane potential by JC-1 stain (flow cytometry); assay type: cell-based, human; settings: 24 h, 10 μM
Protocol: (§2) Cells were seeded in a density of (2–4) × 10^5 cells/well in six-well plates and in 1 mL culture medium containing 10% FBS. After 24 h recovery, cells were treated with the indicated compounds and concentrations. Next, the supernatant was collected followed by trypsinization of the cells and centrifugation at 300g for 5 min. In the following protocols, cells were stained with annexin V (AV) and propidium iodide (PI) for cell death analysis, with only PI for cell cycle analysis, or with 10 μg mL^–1 JC-1 for evaluation of the mitochondrial membrane potential as previously described.[54],[55]

MES-OV cells [2] = assay: ROS detection by DCF-DA flow cytometry in MES-OV; assay type: cell-based, human; settings: 24 h
Protocol: Cells were seeded 5 × 10^5 cells/mL in six-well plates. After 24 h treatment with the indicated concentration, cells were incubated with 10 μM 2′,7′-dichlorofluorescein diacetate (DCFH-DA, Sigma-Aldrich) in Hank’s balanced salt solution for 1 h at 37 °C. Subsequently, flow cytometry (with BD LSR Fortessa instrument, BD Biosciences, Franklin Lakes, NJ, USA) was performed to measure the median fluorescence signal of 20,000 single cells per sample. FlowJo (BD Biosciences, San Jose, CA, USA) and GraphPad Prism software (GraphPad Software Inc., San Diego, CA, USA) were to analyze the data.

SK-OV-3 = assay: Cell death by annexin V/propidium iodide stain (flow cytometry); assay type: cell-based, human; settings: SK-OV-3, 10 μM, 24 h
Protocol: as §2

[3] = Stability in PBS by LC-ESI(+)-HRMS/MS; assay type: physicochemical; settings: 80 μM in PBS, monitored 48 h
Protocol: For the stability evaluation in PBS, 10 mM solutions of complexes 1, 4, and 7 were first prepared in DMSO. Two microliters of this solution were then added to PBS (250 μL) for a total concentration of 80 μM. Following centrifugation for 10 min at 3000 rpm, the resulting solutions were monitored by LC-ESI(+)-MS and LC-ESI(+)-HRMS for a period of 48 h.

MES-OV cells [4] = assay: TEM analysis of subcellular morphology; assay type: cell-based, human; settings: 24 h treatment
Protocol: MES-OV Cells were seeded (8 × 10^5 cells/mL) in […] in six-well plates. After 24 h, cells were treated with the selected compounds at the indicated concentration for another 24 h. Afterward, cells were collected, pelleted, and fixed in a solution of 2.5% glutaraldehyde and 2% paraformaldehyde in 0.1 M cacodylate buffer (pH 7.4) for 2 h at room temperature. Samples were subsequently washed 3 × 10 min in cacodylate buffer and postfixed in 1% osmium tetroxide for 1 h. After 3 × 10 min washing in cacodylate buffer, samples were dehydrated in an ethanol series (30–100%, 10 min each) and pure acetone (2 × 10 min) and gradually embedded in Epon 812 resin (Serva). Sections (40–50 nm) were prepared with a Leica UC7 ultramicrotome, mounted on copper mesh grids, and contrasted with 1% uranyl acetate (7 min) and 3% lead citrate (3 min). Imaging was performed with a Tecnai G2 20 transmission electron microscope at 80 kV equipped with an FEI Eagle 4K CCD camera (Center for Anatomy and Cell Biology). Image processing was performed in Fiji[57] using the CLAHE filter (enhance local contrast).

MES-OV cells [5] = assay: Phase-contrast microscopy of cytoplasmic vacuoles; assay type: cell-based, human; settings: 6 and 24 h treatment
Protocol: Cells were seeded 5 × 10^5/well in six-well plates after 24 h recovery treatment with compounds 1, 4, and 7 was performed with the indicated concentrations. After 6 and 24 h, phase-contrast images of the cells were taken with a Zeiss Primovert microscope (20× magnification). To determinate the percentage of vacuolated cells, images (three images each condition) were analyzed by ImageJ, and vacuolated cells were counted.

SK-OV-3 and MES-OV cells = assay: Cell cycle distribution (PI stain, flow cytometry); assay type: cell-based, human; settings: 10 μM, 24 h
Protocol: as §2

Question: What does the source list for `O=S(=O)([O-])C(F)(F)F.[Ag+].c1ccc(-c2ccccn2)nc1.c1ccc(P(c2ccccc2)c2ccccc2)cc1` [Compound 1, [Ag(2,2′-bipy)(PPh3)][CF3SO3]]?
Answer: relative resistance (IC50 SK-OV-3/CBP divided by IC50 SK-OV-3) (SK-OV-3/CBP): 1.6^n.s.; relative resistance (IC50 MES-OV/CBP divided by IC50 MES-OV) (MES-OV/CBP): 1.0^n.s.; relative resistance (IC50 HCT116 WT/OxR divided by IC50 HCT116 WT) (HCT116 WT/OxR): 0.7^n.s.; TrxR inhibition strength relative to 7 (recombinant rat TrxR): 10 fold; cells with mitochondrial depolarization (low Δψ fraction) (MES-OV cells [1]): 50%; ROS levels (in words) (MES-OV cells [2]): significant and very strong elevation in ROS was found only in the 10 μM sample; apoptosis induction (AV/PI) (SK-OV-3): up to 100%; stability in PBS [3]: an equilibrium is established between the parent complex and AgP2 and AgN2 species; vacuole diameter (TEM) (MES-OV cells [4]): 300–500 nm; cytoplasmic vacuole formation (phase contrast) (MES-OV cells [5]): distinctly fewer vesicles of smaller and distinctive shapes; cell cycle distribution change (SK-OV-3 and MES-OV cells): significant shift from the G0–G1 phase to the S phase

Source: paper PMC11056982, “Paraptotic Cell Death as an Unprecedented Mode of Action Observed for New Bipyridine-Silver(I) Compounds Bearing Phosphane Coligands” (Journal of Medicinal Chemistry, 2024)
